The source of these data is article PMC10300352, “Discovery of novel benzylquinazoline molecules as p97/VCP inhibitors” (Frontiers in Pharmacology, 2023).

The structures appear in SMILES notation. Read-outs that look alike come from different tables or passages of the source.

The subject of series [1] is SQSTM1/p62, ATF4, and NF-κB in HCT116 cells. Put plainly: Western blot of p97 downstream biomarkers. The note with it: DBeQ 10 μM, CB-5083 0.5 μM, 8 h treatment. In general terms: A western blot detects proteins with antibodies after separation by electrophoresis.
Method: HCT116 cells were plated into 6-well plates (2 × 10^6 cells/well) when they were 70%–80% confluent. DMSO (0.5% v/v) or compounds were added, and cells were harvested after 8 h of treatment and washed three times with phosphate-buffered saline (PBS, pH 7.4). […] The secondary antibodies used were goat anti-mouse IgG (HRP, Abcam/ab6789).
In another series the test system is K562. Put plainly: Cell proliferation assay (MTT/CCK-8), K562. The note with it: Homo sapiens, K562, 48 h, read-out: IC50 K562.
The test system of a further series is s180. Briefly: Cell proliferation assay (MTT/CCK-8), s180. The conditions noted are these: Mus musculus, S-180, 48 h, read-out: IC50 s180.
A short description of series [2]: Myelosuppressive toxicity evaluation, peripheral blood counts of s180 mice. The class given is in vivo, ICR mice. The conditions noted are these: day 10, 90 μmol/kg/day, vs vehicle.
Method: To determine the effects on myelosuppression, WBC, RBC, PLT count, ALC, and ANC were performed in peripheral blood samples of s180 mice (Figure 7F) on day 10.
A further series concerns HCT116. Put plainly: Cell proliferation assay (MTT/CCK-8), HCT116. The conditions noted are these: Homo sapiens, HCT-116, 48 h, read-out: IC50 HCT116.
The test system of a further series is RPMI-8226. Briefly: Cell proliferation assay (MTT/CCK-8), RPMI-8226. The conditions noted are these: Homo sapiens, RPMI-8226, 48 h, read-out: IC50 RPMI-8226.
For the next series, the system named is HepG2. Put plainly: Cell proliferation assay (MTT/CCK-8), HepG2. The note with it: Homo sapiens, HepG2, 48 h, read-out: IC50 HepG2.
The subject of another series is NCM460. Put plainly: Cell proliferation assay (MTT/CCK-8), normal colon mucosal epithelial cell line NCM460. The conditions noted are these: Homo sapiens, NCM460, 48 h, read-out: IC50 NCM460.
The test system of series [3] is HCT116 cells. Put plainly: Apoptosis assay, annexin V/PI staining and flow cytometry. The conditions noted are these: 10 μM, 12 h; control cells 3.5%.
Method: Apoptosis was measured by flow cytometry after staining with annexin V and propidium iodide (PI) in HCT116 (Figure 5).
The assay was performed as recommended by the manufacturer. Briefly, the HCT116 cells were seeded in 6-well plates (2 × 10^6 cells/well) and allowed to adhere for 4 hours. Then, each well was treated with DMSO (0.5% v/v) or compounds for 12 h. For the apoptosis experiment, at the end of treatment, the cells were washed twice with cold PBS and then harvested for staining with annexin V in binding buffer for 15 min in the dark at room temperature. The cells were washed in binding buffer and then incubated with propidium iodide. […] The samples were measured using flow cytometry (Beckman, cytoFLEX) within 4 h and analyzed using CytExpert (V 2.4.0.28).
For series [4], the system named is p97. The note with it: cited from earlier work.
A further series concerns A549. Briefly: Cell proliferation assay (MTT/CCK-8), A549. The conditions noted are these: Homo sapiens, A549, 48 h, read-out: IC50 A549.
The test system of series [5] is HCT116 cells. Put plainly: Cell cycle assay, PI staining and flow cytometry. The class given is cell-based, human. The conditions noted are these: for effect on the cell cycle: HCT116, 12 h. For orientation: In flow cytometry, cells or beads pass a laser one at a time.
The target of a further series is p97 ATPase (Homo sapiens, UniProt P55072). Briefly: p97 ATPase inhibition, ADP-Glo kinase assay. The note with it: for IC50 of inactivation activities against p97: ADP-Glo, 20 nM p97, 20 μM ATP. (In general: ADP-Glo first removes unused ATP, then detects ADP through luciferase.)
Sequence of p97 ATPase (P55072 whole entry): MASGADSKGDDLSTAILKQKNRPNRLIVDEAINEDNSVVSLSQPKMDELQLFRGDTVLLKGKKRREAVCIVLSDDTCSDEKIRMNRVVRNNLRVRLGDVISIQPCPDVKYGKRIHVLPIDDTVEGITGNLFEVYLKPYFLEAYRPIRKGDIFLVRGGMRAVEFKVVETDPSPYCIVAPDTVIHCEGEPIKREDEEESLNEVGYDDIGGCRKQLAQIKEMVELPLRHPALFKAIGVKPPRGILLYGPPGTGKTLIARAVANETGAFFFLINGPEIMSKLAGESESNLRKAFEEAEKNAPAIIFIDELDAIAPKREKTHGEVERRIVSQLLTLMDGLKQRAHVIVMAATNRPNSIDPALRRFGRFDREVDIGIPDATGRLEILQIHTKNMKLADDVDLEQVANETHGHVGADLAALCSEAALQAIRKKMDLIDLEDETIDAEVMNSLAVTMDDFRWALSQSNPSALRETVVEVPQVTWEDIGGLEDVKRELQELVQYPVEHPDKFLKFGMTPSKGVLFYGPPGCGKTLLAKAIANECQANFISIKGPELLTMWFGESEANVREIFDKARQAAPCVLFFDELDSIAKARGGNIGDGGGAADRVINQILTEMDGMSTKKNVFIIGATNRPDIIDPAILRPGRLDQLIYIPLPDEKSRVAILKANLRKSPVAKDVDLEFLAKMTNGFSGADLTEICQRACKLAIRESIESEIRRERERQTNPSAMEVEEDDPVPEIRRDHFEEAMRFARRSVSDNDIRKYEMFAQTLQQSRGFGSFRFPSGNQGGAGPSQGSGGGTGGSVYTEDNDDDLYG
The target of the next series is His6-p97 (Homo sapiens, UniProt P55072). Put plainly: Microscale thermophoresis (MST) binding assay with fluorescent-labeled His6-p97.
Sequence of His6-p97 (P55072 whole entry): as above
The subject of series [6] is p97. Briefly: In vivo p97 expression measurement by ELISA. The conditions noted are these: day 10, oral 90 μmol/kg/day.
[7] abbreviates: literature values of DBeQ derivatives, Figure 2, read-out: IC50 (p97 inhibitors developed by several research groups).

Method for A549: (§1) Cells were treated with the tested compounds in a variety of concentrations and incubated at 37°C for 48 h before measurement. IC50 values were calculated using the percentage of growth of treated cells versus the blank control (Table 2).
(§2) The medium was supplemented with 10% fetal bovine serum (FBS) (Hyclone, SH30084.03). Cells were cultured in an incubator containing 5% CO2 at 37°C.
(§3) Cells were seeded at 3,000–4,000 cells per well in a 96-well plate to test the antiproliferative activity of target compounds. Cells were treated with the compounds or positive controls 6 h after seeding (twofold dilution, eight concentrations). […] The results were analyzed using GraphPad Prism 7.0.
Method for HepG2: as §1, §2, §3
Method for His6-p97: Fluorescent labeling of His6-p97 was carried out using the RED-tris-NTA labeling kit (Catalog No. MO-L011, NanoTemper Technologies) on a NanoTemper Monolith NT.115 following the manufacturer’s protocol. In brief, His6-p97 protein was diluted into 200 nM with PBST (0.05% Tween 20 in PBS), and red-NHS dye was diluted into 100 nM with PBST. Then, His6-p97 and RED-tris-NTA dye were mixed in a 1:1 volumetric ratio and incubated at room temperature for 30 min. […] Then 10 μL of compounds were mixed at different concentrations with 10 μL of dye-labeled His6-p97. Subsequently, well-mixed solutions containing compounds and dye-labeled His6-p97 were loaded into capillaries (Catalog No. MO-K025, NanoTemper Technologies), which were placed in slots 1–16 on the capillary rack. Then, MST experiments were carried out at an ambient temperature, and the instrument parameters were set to 20% LED power and medium MST power. The equilibrium dissociation constants were derived from the M.O. Affinity Analysis software using the K d model based on four independently titrated experiments per condition.
Method for K562: as §1, §2, §3
Method for NCM460: Cells were treated with the tested compounds in a variety of concentrations and incubated at 37°C for 48 h before measurement. […] Furthermore, we evaluated all compounds’ potency toward the normal human cell line NCM460.
as §2, §3
Method for RPMI-8226: as §1, §2, §3
Method for p97 ATPase: As the major indicator of p97 inhibitors, the inactivation of p97 ATPase by the tested compounds was determined using an ADP-Glo kinase assay, in which the formation of ADP represented the activity of ATPase.
His‐tagged human VCP (hVCP) cDNA was amplified by PCR and cloned into PCR‐linearized pET15 b (Merck Millipore, Burlington, MA, United States) using a CloneEZ Kit (Genscript). The pET15 b‐hVCP plasmid was transformed into Escherichia coli BL21 (Rosetta; Novagen, Madison, WI, United States), and the transformed bacteria were pre-cultured in LB medium containing kanamycin and chloramphenicol overnight at 37°C. Protein expression was induced with 1 mmol/L isopropyl‐β‐D‐thiogalactopyranoside.
Protein concentrations were first normalized using a Pierce BCA protein assay kit (Thermo Fisher), and a standard series was prepared with the BSA provided (2 mg/ml–25 μg/μL). Twenty-five microliters of each standard and unknown sample was added to a 96-well plate in triplicate, and 200 μL of working reagent was added to each well and prepared according to the manufacturer’s guidelines.
The protein solution was diluted to 20 nM of p97 with 20 μM ATP in triplicate in 5 μL of 1× Kinase Reaction Buffer A (40 mM Tris, pH 7.5, 20 mM MgCl2, 0.1 mg/mL BSA) and incubated at 37°C for 30 min. After incubation, the solutions were equilibrated to RT for 5 min, and 5 μL of ADP-Glo reagent was added to stop the reaction and consume the remaining ATP. The solution was incubated for 40 min at RT. Ten microliters of kinase detection reagent was added and incubated for 30 min. The sample’s luminescence was recorded using a multimode microplate reader (SMP7, MD). Each sample was averaged across the three measurements and plotted as mean ± standard deviation.

In general, IC50 refers to the concentration needed to halve the response being measured. For the compound `Cc1cc2c(C(N)=O)cccc2n1-c1nc2c(c(NCc3ccccc3)n1)COCC2` [CB-5083, reference compound], the “autophagosome formation in the cytoplasm” value in series [1] is on record as “induced accumulation”. Further, the “levels of the ER stress biomarker (ATF4)” value in series [1] is “increased levels”. The IC50 is 0.7 ± 0.42 µM in the series with K562; 0.24 ± 0.29 µM in the series on s180; 0.47 ± 0.16 µM in the series with HCT116; 0.15 ± 0.02 µM with RPMI-8226; 0.16 ± 0.03 µM in the series with HepG2; 0.078 ± 0.015 µM in the series with NCM460. Moreover, the values for the IC50 in the series with p97 [4] (setting [7]) and in the series on A549 were 0.011 µM and 0.77 ± 0.38 µM, respectively. Besides, for the setting “oral 90 μmol/kg/day, 10 days”, the body weight change result was “obvious weight loss effects”. Besides, the “death of mice during the in vivo experiments” value (oral 90 μmol/kg/day, 10 days) was “death occurred on day 8”. For the same compound, the ALC entry in [2] is reported as “significantly lower”. The ANC entry in [2] was “significantly lower”. Also, the WBC result in [2] is reported as “significantly lower”. The “proportion of apoptotic cells” value in the series with HCT116 cells [3] is recorded as 20.42%.

Broadly, the Kd is a measure of binding affinity in units of concentration. `O=C(NNc1ncnc2ccccc12)c1cnccn1` [Compound 4, Nʹ-(Quinazolin-4-yl)pyrazine-2-carbohydrazide]: the IC50 was 66.7 ± 9.97 µM with K562; 1.04 ± 0.37 µM with s180; 0.108 µM at p97 ATPase; 3.48 ± 0.21 µM in the series on HCT116; 5.24 ± 0.45 µM in the series with RPMI-8226; more than 100 µM in the series on HepG2. Moreover, the IC50 was 49.8 ± 3.25 µM with NCM460 and more than 100 µM in the series with A549. The “effect on the cell cycle” value in the series on HCT116 cells [5] is recorded as “cell proportion in the S phase in the compound 4-treated group was notably higher than that in the vehicle group”. In addition, the “proportion of apoptotic cells” value with HCT116 cells [3] was found to be 8.31%. At His6-p97, this compound displayed a Kd of 0.64 ± 0.26 µM.

Regarding `Nc1nccnc1C(=O)NNc1ncnc2ccccc12` [Compound 5, 3-Amino-Nʹ-(quinazolin-4-yl)pyrazine-2-carbohydrazide], the IC50 amounted to 1.79 ± 0.73 µM with K562; 6.9 ± 2 µM in the series with s180; 0.072 µM against p97 ATPase; 5.83 ± 1.03 µM with HCT116; 0.75 ± 0.01 µM in the series on RPMI-8226; 4.53 ± 1.26 µM in the series with HepG2. Further, the IC50 in the series with NCM460 was 24.2 ± 1.05 µM; in the series on A549 it was 24.2 ± 5.39 µM. Further, in the series with HCT116 cells [3], the “proportion of apoptotic cells” value is 9.34%. The same compound came in with a Kd on His6-p97 of 0.4 ± 0.15 µM.

Turning to `COc1cccc2c(NNC(=O)c3cnccn3)ncnc12` [Compound 6, Nʹ-(8-Methoxyquinazolin-4-yl)pyrazine-2-carbohydrazide], the IC50 was more than 100 µM in the series with K562; 1.72 ± 0.69 µM with s180; 2.94 ± 0.1 µM in the series with HCT116; 3.61 ± 0.27 µM in the series on RPMI-8226; more than 100 µM with HepG2; 36.2 ± 2.89 µM with NCM460. In addition, the IC50 in the series on A549 is more than 100 µM. Also, the “death of mice during the in vivo experiments” value (mouse, in vivo, po) is on record as “no mice died”. Moreover, the body weight change result (oral 90 μmol/kg/day, 10 days) was “No obvious loss of body weight”. In [2], the ALC entry is given as “no significant changes”. Moreover, in series [2], the ANC entry is on record as “no significant changes”. For the same compound, the PLT count result in series [2] was “no significant changes”. For the same compound, the RBC result in [2] is “no significant changes”. The WBC result in series [2] was “no significant changes”. Moreover, the “proportion of apoptotic cells” value in the series with HCT116 cells [3] was determined as 20.68%.

Take `COc1cccc2c(NNC(=O)c3nccnc3N)ncnc12` [Compound 7, 3-Amino-Nʹ-(8-methoxyquinazolin-4-yl)pyrazine-2-carbohydrazide]: the IC50 in the series on K562 is more than 100 µM; in the series on s180, 32.4 ± 2.57 µM; in the series with HCT116, more than 100 µM; in the series with RPMI-8226, 39.8 ± 0.95 µM; in the series on HepG2 it was more than 100 µM; in the series with NCM460, 27.3 ± 1.62 µM. Moreover, the IC50 with A549 was more than 100 µM. In addition, the “effect on the cell cycle” value in the series on HCT116 cells [5] is “arrested the cells in both G0/G1 and S phases”. Also, the “proportion of apoptotic cells” value in the series on HCT116 cells [3] is given as 8.94%.

As to `O=C(O)/C=C/c1ccc(Nc2nc(NCc3cnccn3)c3ccccc3n2)cc1` [Compound 10a, (E)-3-(4-((4-((Pyrazin-2-ylmethyl)amino)quinazolin-2-yl)amino)phenyl)acrylic acid], at p97 ATPase, the “IC50 of inactivation activities against p97” value (“IC50 … against p97” for short) is “Inactive”. Further, the Kd at His6-p97 was 5 µM.

Take `COc1cccc2c(NCc3cnccn3)nc(Nc3ccc(/C=C/C(=O)O)cc3)nc12` [Compound 10b, (E)-3-(4-((8-Methoxy-4-((pyrazin-2-ylmethyl)amino)quinazolin-2-yl)amino)phenyl)acrylic acid]: the “IC50 … against p97” value against p97 ATPase is on record as “Inactive”. The same compound had a Kd at His6-p97 of more than 10 µM.

Consider `NC(=O)/C=C/c1ccc(Nc2nc(NCc3cnccn3)c3ccccc3n2)cc1` [Compound 11a, (E)-3-(4-((4-((Pyrazin-2-ylmethyl)amino)quinazolin-2-yl)amino)phenyl)acrylamide], for which, on p97 ATPase, the “IC50 … against p97” value is recorded as “Inactive”. This compound gave a Kd on His6-p97 of more than 10 µM.

Take `COc1cccc2c(NCc3cnccn3)nc(Nc3ccc(/C=C/C(N)=O)cc3)nc12` [Compound 11b, (E)-3-(4-((8-Methoxy-4-((pyrazin-2-ylmethyl)amino)quinazolin-2-yl)amino)phenyl)acrylamide]: the “IC50 … against p97” value at p97 ATPase is reported as “Inactive”. For the same compound, the Kd at His6-p97 was more than 10 µM.

In the case of `COc1cccc2c(NCc3ccccc3)nc(NCc3ccccc3)nc12` [Compound P2-B11], the IC50 with p97 [4] (setting [7]) was 3.4 µM.

As for `c1ccc(CNc2nc(NCc3ccccc3)c3ccccc3n2)cc1` [DBeQ], the “p97 concentration in the serum” value with p97 [6] is “lowered”. For the same compound, in series [1], the “autophagosome formation in the cytoplasm” value is reported as “induced accumulation”. For the same compound, the “levels of the ER stress biomarker (ATF4)” value in series [1] was “increased levels”. Besides, the IC50 in the series on K562 came out at 5.64 ± 1.08 µM; in the series with s180 it was 2.69 ± 0.82 µM; on p97 ATPase it was 0.657 µM; with HCT116 it was 4.78 ± 0.22 µM; in the series on RPMI-8226, 4.29 ± 2.46 µM; with HepG2, 7.57 ± 1.2 µM. Further, the IC50 in the series with NCM460 is 6.44 ± 0.36 µM; in the series with p97 [4] (ref Chou et al., 2011, read-out: IC50 in the ATPase activity assays), less than 10 µM; in the series on A549, 11.6 ± 0.84 µM. For the same compound, in series [2], the ALC entry is recorded as “significantly reduced”. Also, the ANC result in [2] is on record as “no significant alterations”. For the same compound, in series [2], the PLT count entry is “no significant alterations”. In series [2], the RBC entry is reported as “no significant alterations”. Also, the WBC entry in series [2] is “significantly reduced”. This compound also returned a G0/G1 phase fraction in the series on HCT116 cells [5] (12 h, same concentration as apoptosis measurement, vehicle 32.82%) of 33.53%. In addition, the “percentage of cells in the S phase” value with HCT116 cells [5] (12 h, vehicle 23.61%) was determined as 16.74%. In the series on HCT116 cells [5] (12 h, vehicle 43.51%), the “percentage of cells in the G2/M phase” value amounted to 49.30%. Moreover, in the series with HCT116 cells [5], the “effect on the cell cycle” value is “arrested the cell cycle at the G2/M phase”. Further, the “proportion of apoptotic cells” value in the series on HCT116 cells [3] came to 19.65%. Further, at His6-p97, the affinity, expressed as Kd, was 0.68 ± 0.059 µM.

With `COc1cccc2c(NCc3ccccc3)nc(-n3c(C)cc4c(NS(C)(=O)=O)cccc43)nc12` [ML-240], the concentration for half-maximal inhibition (IC50) in the series on p97 [4] (setting [7]) is 0.11 µM.

For `c1ccc(CNc2nc(N3CCOc4ccccc43)nc3c2CCCC3)cc1` [ML-241], the IC50 with p97 [4] (setting [7]) was 0.1 µM.

Consider `Cc1cc2c(NS(C)(=O)=O)cccc2n1-c1nc2c(c(NCc3ccccc3)n1)COCC2` [compound 35], for which, in the series with p97 [4] (setting [7]), the IC50 was 0.036 µM.
